{"source": "the kinase profiling compilation of Christmann-Franck et al. (2016)", "settings_in_all_cases": "compound 10.0 µM", "key": {"LRRK2 (human)": {"molecular_target": "LRRK2 (human) (UniProt Q5S007)"}, "NEK6 (human)": {"molecular_target": "NEK6 (human) (UniProt Q9HC98)"}, "[1]": {"molecular_target": "JAK3 JH1 catalytic (human) (UniProt P52333)"}, "DSTYK (human)": {"molecular_target": "DSTYK (human) (UniProt Q6XUX3)"}, "MAPK1 (human)": {"molecular_target": "MAPK1 (human) (UniProt P28482)"}, "SIK2 (human)": {"molecular_target": "SIK2 (human) (UniProt Q9H0K1)"}, "CIT (human)": {"molecular_target": "CIT (human) (UniProt O14578)", "sequence (O14578 whole entry, looked up)": "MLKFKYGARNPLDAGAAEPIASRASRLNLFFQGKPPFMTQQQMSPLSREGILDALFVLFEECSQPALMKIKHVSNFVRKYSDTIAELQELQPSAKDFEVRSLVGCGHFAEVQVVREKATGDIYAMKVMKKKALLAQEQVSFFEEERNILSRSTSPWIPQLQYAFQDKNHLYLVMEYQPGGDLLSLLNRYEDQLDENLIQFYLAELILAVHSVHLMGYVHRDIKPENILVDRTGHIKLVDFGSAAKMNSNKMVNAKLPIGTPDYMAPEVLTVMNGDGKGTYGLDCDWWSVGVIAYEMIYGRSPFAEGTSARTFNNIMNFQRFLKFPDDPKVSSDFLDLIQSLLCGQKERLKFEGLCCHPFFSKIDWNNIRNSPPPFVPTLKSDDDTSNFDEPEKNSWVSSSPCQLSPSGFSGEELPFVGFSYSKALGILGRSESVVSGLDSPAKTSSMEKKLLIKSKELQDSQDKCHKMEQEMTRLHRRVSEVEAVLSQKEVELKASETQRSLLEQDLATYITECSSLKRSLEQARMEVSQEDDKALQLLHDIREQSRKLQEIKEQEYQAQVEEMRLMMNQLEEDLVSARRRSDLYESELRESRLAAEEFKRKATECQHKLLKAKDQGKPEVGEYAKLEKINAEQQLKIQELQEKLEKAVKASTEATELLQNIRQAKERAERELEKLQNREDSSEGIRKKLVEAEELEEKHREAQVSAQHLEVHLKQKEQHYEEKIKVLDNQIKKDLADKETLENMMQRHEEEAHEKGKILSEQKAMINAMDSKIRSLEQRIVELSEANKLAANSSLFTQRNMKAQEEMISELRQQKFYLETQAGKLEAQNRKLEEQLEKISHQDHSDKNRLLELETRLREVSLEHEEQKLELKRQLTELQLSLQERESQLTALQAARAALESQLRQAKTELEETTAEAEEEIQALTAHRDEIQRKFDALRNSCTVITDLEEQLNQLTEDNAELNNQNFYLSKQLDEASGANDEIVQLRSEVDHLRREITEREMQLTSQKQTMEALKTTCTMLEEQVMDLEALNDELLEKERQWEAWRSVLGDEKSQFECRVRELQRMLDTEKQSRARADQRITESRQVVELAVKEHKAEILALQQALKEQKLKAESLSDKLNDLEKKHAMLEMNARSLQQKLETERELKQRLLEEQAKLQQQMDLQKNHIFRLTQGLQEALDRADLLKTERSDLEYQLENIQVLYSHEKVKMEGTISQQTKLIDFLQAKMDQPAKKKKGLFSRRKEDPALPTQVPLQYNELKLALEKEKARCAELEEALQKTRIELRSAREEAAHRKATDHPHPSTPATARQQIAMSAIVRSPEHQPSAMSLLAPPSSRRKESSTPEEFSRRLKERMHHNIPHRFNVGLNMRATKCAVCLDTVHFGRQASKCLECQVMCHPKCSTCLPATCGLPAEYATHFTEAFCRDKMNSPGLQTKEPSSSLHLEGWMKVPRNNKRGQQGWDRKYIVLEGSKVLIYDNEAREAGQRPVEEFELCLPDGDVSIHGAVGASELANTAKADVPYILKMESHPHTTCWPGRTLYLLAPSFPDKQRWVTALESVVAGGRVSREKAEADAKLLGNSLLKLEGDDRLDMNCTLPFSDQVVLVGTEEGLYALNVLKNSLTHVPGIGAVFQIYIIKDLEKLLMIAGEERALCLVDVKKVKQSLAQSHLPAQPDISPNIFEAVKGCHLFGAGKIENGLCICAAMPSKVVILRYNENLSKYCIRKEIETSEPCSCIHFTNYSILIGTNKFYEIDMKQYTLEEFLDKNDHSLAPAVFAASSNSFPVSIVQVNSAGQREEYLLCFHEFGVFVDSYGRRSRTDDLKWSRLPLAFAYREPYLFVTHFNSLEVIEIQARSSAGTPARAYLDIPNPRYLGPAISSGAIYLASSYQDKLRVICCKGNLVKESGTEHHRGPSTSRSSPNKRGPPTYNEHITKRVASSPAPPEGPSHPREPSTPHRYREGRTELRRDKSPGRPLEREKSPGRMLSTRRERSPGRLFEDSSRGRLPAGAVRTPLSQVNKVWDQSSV"}, "NTRK2 (human)": {"molecular_target": "NTRK2 (human) (UniProt Q16620)"}, "MAP4K1 (human)": {"molecular_target": "MAP4K1 (human) (UniProt Q92918)"}, "NEK9 (human)": {"molecular_target": "NEK9 (human) (UniProt Q8TD19)"}, "CSNK1G2 (human)": {"molecular_target": "CSNK1G2 (human) (UniProt P78368)"}, "EPHA7 (human)": {"molecular_target": "EPHA7 (human) (UniProt Q15375)"}, "CSNK2A1 (human)": {"molecular_target": "CSNK2A1 (human) (UniProt P68400)"}, "MAP2K6 (human)": {"molecular_target": "MAP2K6 (human) (UniProt P52564)"}, "CSNK1E (human)": {"molecular_target": "CSNK1E (human) (UniProt P49674)", "sequence (P49674 whole entry, looked up)": "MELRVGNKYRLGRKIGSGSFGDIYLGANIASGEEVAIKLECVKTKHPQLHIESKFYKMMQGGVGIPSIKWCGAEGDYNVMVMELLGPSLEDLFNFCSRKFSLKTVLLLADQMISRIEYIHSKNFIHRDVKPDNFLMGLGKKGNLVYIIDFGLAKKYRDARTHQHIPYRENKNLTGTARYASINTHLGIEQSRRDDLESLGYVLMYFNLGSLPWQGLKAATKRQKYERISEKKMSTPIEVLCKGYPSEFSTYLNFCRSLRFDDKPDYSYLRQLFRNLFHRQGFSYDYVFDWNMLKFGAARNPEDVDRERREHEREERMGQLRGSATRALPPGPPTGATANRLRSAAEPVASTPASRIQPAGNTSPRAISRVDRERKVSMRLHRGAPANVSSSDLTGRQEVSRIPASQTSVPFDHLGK"}, "GAK (human)": {"molecular_target": "GAK (human) (UniProt O14976)"}, "ALK (human)": {"molecular_target": "ALK (human) (UniProt Q9UM73)"}, "MAP4K4 (human)": {"molecular_target": "MAP4K4 (human) (UniProt O95819)"}, "AKT3 (human)": {"molecular_target": "AKT3 (human) (UniProt Q9Y243)"}, "CSNK2A2 (human)": {"molecular_target": "CSNK2A2 (human) (UniProt P19784)"}, "PLK4 (human)": {"molecular_target": "PLK4 (human) (UniProt O00444)"}, "STK3 (human)": {"molecular_target": "STK3 (human) (UniProt Q13188)"}, "MAP2K3 (human)": {"molecular_target": "MAP2K3 (human) (UniProt P46734)"}, "TAOK2 (human)": {"molecular_target": "TAOK2 (human) (UniProt Q9UL54)"}, "MKNK1 (human)": {"molecular_target": "MKNK1 (human) (UniProt Q9BUB5)"}, "PIK3C2B (human)": {"molecular_target": "PIK3C2B (human) (UniProt O00750)"}, "MKNK2 (human)": {"molecular_target": "MKNK2 (human) (UniProt Q9HBH9)"}, "TNIK (human)": {"molecular_target": "TNIK (human) (UniProt Q9UKE5)"}, "EPHA1 (human)": {"molecular_target": "EPHA1 (human) (UniProt P21709)"}, "[2]": {"system": "FLT3 (human), P36888 [K663Q]"}, "DCLK1 (human)": {"molecular_target": "DCLK1 (human) (UniProt O15075)"}, "EPHA3 (human)": {"molecular_target": "EPHA3 (human) (UniProt P29320)"}, "MYLK4 (human)": {"molecular_target": "MYLK4 (human) (UniProt Q86YV6)"}, "CDK3 (human)": {"molecular_target": "CDK3 (human) (UniProt Q00526)", "sequence (Q00526 whole entry, looked up)": "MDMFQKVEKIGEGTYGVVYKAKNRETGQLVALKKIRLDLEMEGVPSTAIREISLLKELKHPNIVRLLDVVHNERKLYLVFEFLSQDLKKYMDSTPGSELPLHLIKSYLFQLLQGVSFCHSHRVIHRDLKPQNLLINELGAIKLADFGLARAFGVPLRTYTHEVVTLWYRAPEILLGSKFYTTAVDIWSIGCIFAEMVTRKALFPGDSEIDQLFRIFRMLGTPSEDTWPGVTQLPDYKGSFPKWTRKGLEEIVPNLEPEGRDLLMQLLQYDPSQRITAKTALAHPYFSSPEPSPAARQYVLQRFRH"}, "LIMK2 (human)": {"molecular_target": "LIMK2 (human) (UniProt P53671)", "sequence (P53671 whole entry, looked up)": "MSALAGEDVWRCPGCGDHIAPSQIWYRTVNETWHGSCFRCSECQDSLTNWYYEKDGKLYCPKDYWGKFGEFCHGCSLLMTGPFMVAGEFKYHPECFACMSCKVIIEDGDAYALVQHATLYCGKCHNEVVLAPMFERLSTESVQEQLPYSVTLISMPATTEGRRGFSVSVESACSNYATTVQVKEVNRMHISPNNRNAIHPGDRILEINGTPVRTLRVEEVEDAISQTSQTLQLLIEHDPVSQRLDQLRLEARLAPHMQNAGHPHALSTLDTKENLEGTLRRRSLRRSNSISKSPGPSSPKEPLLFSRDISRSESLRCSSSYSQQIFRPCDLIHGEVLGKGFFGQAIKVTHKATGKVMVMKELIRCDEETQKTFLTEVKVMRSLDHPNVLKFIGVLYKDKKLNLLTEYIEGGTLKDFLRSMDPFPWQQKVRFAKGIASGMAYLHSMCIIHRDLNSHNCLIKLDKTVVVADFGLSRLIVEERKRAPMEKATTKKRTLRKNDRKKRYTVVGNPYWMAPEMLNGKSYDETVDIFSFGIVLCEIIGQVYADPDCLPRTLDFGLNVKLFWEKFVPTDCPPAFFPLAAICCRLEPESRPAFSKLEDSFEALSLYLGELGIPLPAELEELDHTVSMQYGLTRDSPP"}, "SRPK3 (human)": {"molecular_target": "SRPK3 (human) (UniProt Q9UPE1)"}, "MAP3K9 (human)": {"molecular_target": "MAP3K9 (human) (UniProt P80192)"}, "RPS6KA3 KD1 (human)": {"molecular_target": "RPS6KA3 KD1 (human) (UniProt P51812)", "sequence (P51812 whole entry, looked up)": "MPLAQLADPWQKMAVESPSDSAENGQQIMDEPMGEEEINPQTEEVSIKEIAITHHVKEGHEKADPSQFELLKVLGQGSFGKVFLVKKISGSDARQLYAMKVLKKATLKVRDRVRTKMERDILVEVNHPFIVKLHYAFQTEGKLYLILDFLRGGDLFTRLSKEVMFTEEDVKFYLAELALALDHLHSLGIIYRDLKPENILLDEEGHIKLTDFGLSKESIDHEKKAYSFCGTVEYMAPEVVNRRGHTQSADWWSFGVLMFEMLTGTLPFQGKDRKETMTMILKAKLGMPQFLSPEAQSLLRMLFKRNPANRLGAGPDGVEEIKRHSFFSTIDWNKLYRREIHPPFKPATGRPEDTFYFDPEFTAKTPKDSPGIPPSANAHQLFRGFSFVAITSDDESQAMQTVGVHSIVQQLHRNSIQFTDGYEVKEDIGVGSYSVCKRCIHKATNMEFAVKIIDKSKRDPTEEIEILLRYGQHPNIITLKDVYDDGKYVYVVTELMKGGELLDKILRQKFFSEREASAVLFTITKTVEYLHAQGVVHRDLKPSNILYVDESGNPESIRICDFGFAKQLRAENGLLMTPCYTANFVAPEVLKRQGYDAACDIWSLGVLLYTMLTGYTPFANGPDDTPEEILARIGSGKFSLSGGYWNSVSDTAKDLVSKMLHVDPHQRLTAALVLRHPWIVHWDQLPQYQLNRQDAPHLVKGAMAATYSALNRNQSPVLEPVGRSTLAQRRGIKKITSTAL"}, "PRKCH (human)": {"molecular_target": "PRKCH (human) (UniProt P24723)", "sequence (P24723 whole entry, looked up)": "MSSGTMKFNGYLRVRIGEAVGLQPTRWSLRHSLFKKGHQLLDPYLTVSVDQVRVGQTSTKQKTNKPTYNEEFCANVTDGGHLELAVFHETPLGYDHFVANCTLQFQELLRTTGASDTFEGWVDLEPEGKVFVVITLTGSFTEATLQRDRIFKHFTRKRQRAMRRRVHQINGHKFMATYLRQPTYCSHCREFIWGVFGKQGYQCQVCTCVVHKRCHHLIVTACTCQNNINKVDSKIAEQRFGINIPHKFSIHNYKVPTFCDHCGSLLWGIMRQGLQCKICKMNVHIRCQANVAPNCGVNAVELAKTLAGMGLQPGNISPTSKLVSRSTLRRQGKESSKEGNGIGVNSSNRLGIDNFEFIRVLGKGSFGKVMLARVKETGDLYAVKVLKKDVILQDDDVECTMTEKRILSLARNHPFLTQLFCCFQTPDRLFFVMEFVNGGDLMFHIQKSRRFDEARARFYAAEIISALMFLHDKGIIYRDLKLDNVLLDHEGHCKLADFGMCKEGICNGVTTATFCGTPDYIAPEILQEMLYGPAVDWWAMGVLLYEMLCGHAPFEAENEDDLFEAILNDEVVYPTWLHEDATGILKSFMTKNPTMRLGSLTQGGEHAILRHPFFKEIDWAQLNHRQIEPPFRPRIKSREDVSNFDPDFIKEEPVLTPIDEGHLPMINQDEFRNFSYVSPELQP"}, "MAK (human)": {"molecular_target": "MAK (human) (UniProt P20794)"}, "PAK4 (human)": {"molecular_target": "PAK4 (human) (UniProt O96013)"}, "BMPR1A (human)": {"molecular_target": "BMPR1A (human) (UniProt P36894)"}}}
{"smiles": "CNC(=O)c1cc(Oc2ccc(NC(=O)Nc3ccc(Cl)c(C(F)(F)F)c3)cc2)ccn1", "values": [{"measurement": "per cent of control", "setting": "LRRK2 (human)", "value": 86, "unit": "%"}, {"measurement": "per cent of control", "setting": "NEK6 (human)", "value": 100, "unit": "%"}, {"measurement": "per cent of control", "setting": "[1]", "value": 100, "unit": "%"}, {"measurement": "per cent of control", "setting": "DSTYK (human)", "value": 100, "unit": "%"}, {"measurement": "per cent of control", "setting": "MAPK1 (human)", "value": 100, "unit": "%"}, {"measurement": "per cent of control", "setting": "SIK2 (human)", "value": 74, "unit": "%"}, {"measurement": "per cent of control", "setting": "CIT (human)", "value": 20, "unit": "%"}, {"measurement": "per cent of control", "setting": "NTRK2 (human)", "value": 6.1, "unit": "%"}, {"measurement": "per cent of control", "setting": "MAP4K1 (human)", "value": 19, "unit": "%"}, {"measurement": "per cent of control", "setting": "NEK9 (human)", "value": 48, "unit": "%"}, {"measurement": "per cent of control", "setting": "CSNK1G2 (human)", "value": 100, "unit": "%"}, {"measurement": "per cent of control", "setting": "EPHA7 (human)", "value": 7.6, "unit": "%"}, {"measurement": "per cent of control", "setting": "CSNK2A1 (human)", "value": 100, "unit": "%"}, {"measurement": "per cent of control", "setting": "MAP2K6 (human)", "value": 73, "unit": "%"}, {"measurement": "per cent of control", "setting": "CSNK1E (human)", "value": 99, "unit": "%"}, {"measurement": "per cent of control", "setting": "GAK (human)", "value": 62, "unit": "%"}, {"measurement": "per cent of control", "setting": "ALK (human)", "value": 100, "unit": "%"}, {"measurement": "per cent of control", "setting": "MAP4K4 (human)", "value": 8.7, "unit": "%"}, {"measurement": "per cent of control", "setting": "AKT3 (human)", "value": 90, "unit": "%"}, {"measurement": "per cent of control", "setting": "CSNK2A2 (human)", "value": 82, "unit": "%"}, {"measurement": "per cent of control", "setting": "PLK4 (human)", "value": 46, "unit": "%"}, {"measurement": "per cent of control", "setting": "STK3 (human)", "value": 100, "unit": "%"}, {"measurement": "per cent of control", "setting": "MAP2K3 (human)", "value": 93, "unit": "%"}, {"measurement": "per cent of control", "setting": "TAOK2 (human)", "value": 0.65, "unit": "%"}, {"measurement": "per cent of control", "setting": "MKNK1 (human)", "value": 1.6, "unit": "%"}, {"measurement": "per cent of control", "setting": "PIK3C2B (human)", "value": 100, "unit": "%"}, {"measurement": "per cent of control", "setting": "MKNK2 (human)", "value": 0.1, "unit": "%"}, {"measurement": "per cent of control", "setting": "TNIK (human)", "value": 21, "unit": "%"}, {"measurement": "per cent of control", "setting": "EPHA1 (human)", "value": 11, "unit": "%"}, {"measurement": "per cent of control", "setting": "[2]", "value": 0.25, "unit": "%"}, {"measurement": "per cent of control", "setting": "DCLK1 (human)", "value": 62, "unit": "%"}, {"measurement": "per cent of control", "setting": "EPHA3 (human)", "value": 4, "unit": "%"}, {"measurement": "per cent of control", "setting": "MYLK4 (human)", "value": 88, "unit": "%"}, {"measurement": "per cent of control", "setting": "CDK3 (human)", "value": 41, "unit": "%"}, {"measurement": "per cent of control", "setting": "LIMK2 (human)", "value": 53, "unit": "%"}, {"measurement": "per cent of control", "setting": "SRPK3 (human)", "value": 84, "unit": "%"}, {"measurement": "per cent of control", "setting": "MAP3K9 (human)", "value": 100, "unit": "%"}, {"measurement": "per cent of control", "setting": "RPS6KA3 KD1 (human)", "value": 99, "unit": "%"}, {"measurement": "per cent of control", "setting": "PRKCH (human)", "value": 89, "unit": "%"}, {"measurement": "per cent of control", "setting": "MAK (human)", "value": 38, "unit": "%"}, {"measurement": "per cent of control", "setting": "PAK4 (human)", "value": 100, "unit": "%"}, {"measurement": "per cent of control", "setting": "BMPR1A (human)", "value": 100, "unit": "%"}]}
{"smiles": "CNC(=O)c1cc(Oc2ccc(NC(=O)Nc3ccc(Cl)c(C(F)(F)F)c3)cc2)cc[n+]1[O-]", "values": [{"measurement": "per cent of control", "setting": "LRRK2 (human)", "value": 80, "unit": "%"}, {"measurement": "per cent of control", "setting": "NEK6 (human)", "value": 100, "unit": "%"}, {"measurement": "per cent of control", "setting": "[1]", "value": 78, "unit": "%"}, {"measurement": "per cent of control", "setting": "DSTYK (human)", "value": 68, "unit": "%"}, {"measurement": "per cent of control", "setting": "MAPK1 (human)", "value": 100, "unit": "%"}, {"measurement": "per cent of control", "setting": "SIK2 (human)", "value": 66, "unit": "%"}, {"measurement": "per cent of control", "setting": "CIT (human)", "value": 27, "unit": "%"}, {"measurement": "per cent of control", "setting": "NTRK2 (human)", "value": 2.4, "unit": "%"}, {"measurement": "per cent of control", "setting": "MAP4K1 (human)", "value": 6, "unit": "%"}, {"measurement": "per cent of control", "setting": "NEK9 (human)", "value": 35, "unit": "%"}, {"measurement": "per cent of control", "setting": "CSNK1G2 (human)", "value": 100, "unit": "%"}, {"measurement": "per cent of control", "setting": "EPHA7 (human)", "value": 33, "unit": "%"}, {"measurement": "per cent of control", "setting": "CSNK2A1 (human)", "value": 94, "unit": "%"}, {"measurement": "per cent of control", "setting": "MAP2K6 (human)", "value": 55, "unit": "%"}, {"measurement": "per cent of control", "setting": "CSNK1E (human)", "value": 100, "unit": "%"}, {"measurement": "per cent of control", "setting": "GAK (human)", "value": 70, "unit": "%"}, {"measurement": "per cent of control", "setting": "ALK (human)", "value": 94, "unit": "%"}, {"measurement": "per cent of control", "setting": "MAP4K4 (human)", "value": 0.5, "unit": "%"}, {"measurement": "per cent of control", "setting": "AKT3 (human)", "value": 93, "unit": "%"}, {"measurement": "per cent of control", "setting": "CSNK2A2 (human)", "value": 70, "unit": "%"}, {"measurement": "per cent of control", "setting": "PLK4 (human)", "value": 5.2, "unit": "%"}, {"measurement": "per cent of control", "setting": "STK3 (human)", "value": 100, "unit": "%"}, {"measurement": "per cent of control", "setting": "MAP2K3 (human)", "value": 71, "unit": "%"}, {"measurement": "per cent of control", "setting": "TAOK2 (human)", "value": 8, "unit": "%"}, {"measurement": "per cent of control", "setting": "MKNK1 (human)", "value": 1, "unit": "%"}, {"measurement": "per cent of control", "setting": "PIK3C2B (human)", "value": 100, "unit": "%"}, {"measurement": "per cent of control", "setting": "MKNK2 (human)", "value": 0.05, "unit": "%"}, {"measurement": "per cent of control", "setting": "TNIK (human)", "value": 3.9, "unit": "%"}, {"measurement": "per cent of control", "setting": "EPHA1 (human)", "value": 18, "unit": "%"}, {"measurement": "per cent of control", "setting": "[2]", "value": 0.2, "unit": "%"}, {"measurement": "per cent of control", "setting": "DCLK1 (human)", "value": 53, "unit": "%"}, {"measurement": "per cent of control", "setting": "EPHA3 (human)", "value": 4, "unit": "%"}, {"measurement": "per cent of control", "setting": "MYLK4 (human)", "value": 100, "unit": "%"}, {"measurement": "per cent of control", "setting": "CDK3 (human)", "value": 13, "unit": "%"}, {"measurement": "per cent of control", "setting": "LIMK2 (human)", "value": 59, "unit": "%"}, {"measurement": "per cent of control", "setting": "SRPK3 (human)", "value": 86, "unit": "%"}, {"measurement": "per cent of control", "setting": "MAP3K9 (human)", "value": 100, "unit": "%"}, {"measurement": "per cent of control", "setting": "RPS6KA3 KD1 (human)", "value": 52, "unit": "%"}, {"measurement": "per cent of control", "setting": "PRKCH (human)", "value": 84, "unit": "%"}, {"measurement": "per cent of control", "setting": "MAK (human)", "value": 35, "unit": "%"}, {"measurement": "per cent of control", "setting": "PAK4 (human)", "value": 100, "unit": "%"}, {"measurement": "per cent of control", "setting": "BMPR1A (human)", "value": 91, "unit": "%"}]}
